{"source": "patent US20240139133A1", "about": "“TOPICAL NAPROXEN FORMULATIONS AND THEIR USE” (SMARTECH TOPICAL, INC., priority 2021, published 2024)", "origin": "cited, not measured here", "details": "printed as a negative log P"}
{"smiles": "CCOCCOCCO", "note": "[Transcutol, 2-(2-Ethoxyethoxy)ethanol]", "values": [{"measurement": "log P", "result": "~-0.5"}]}
